Laboratory results as given in paper PMC12621043, “Un-LOK-ing a New Approach for Conformational Selective Targeting of STK10 (LOK)” (ACS Medicinal Chemistry Letters, 2025).

What was measured:
[1] = molecular target: T1, DYRK2A (Homo sapiens, UniProt Q92630); assay: DSF Tm panel; type: binding; details: 10 μM compound
T1 construct: purchased in-house DSF kinase panel (SGC-style construct names; the trailing letter is the construct ID)
T1 sequence (Q92630 1-601): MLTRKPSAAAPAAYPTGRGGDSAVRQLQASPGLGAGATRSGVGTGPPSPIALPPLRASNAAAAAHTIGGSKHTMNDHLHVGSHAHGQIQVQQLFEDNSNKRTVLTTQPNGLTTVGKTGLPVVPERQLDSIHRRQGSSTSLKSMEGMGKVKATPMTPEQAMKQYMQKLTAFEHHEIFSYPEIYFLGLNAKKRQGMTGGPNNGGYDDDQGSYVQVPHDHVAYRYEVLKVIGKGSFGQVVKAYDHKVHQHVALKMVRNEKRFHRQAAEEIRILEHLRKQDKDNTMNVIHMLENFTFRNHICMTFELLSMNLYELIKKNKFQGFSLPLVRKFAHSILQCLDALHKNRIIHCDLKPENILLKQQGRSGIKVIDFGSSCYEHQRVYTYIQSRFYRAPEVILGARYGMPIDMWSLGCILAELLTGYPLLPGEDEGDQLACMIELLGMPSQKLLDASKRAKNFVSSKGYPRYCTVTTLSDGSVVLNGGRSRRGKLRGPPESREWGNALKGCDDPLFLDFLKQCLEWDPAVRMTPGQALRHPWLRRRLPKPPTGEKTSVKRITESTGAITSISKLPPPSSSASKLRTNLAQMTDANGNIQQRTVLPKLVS

[2] = molecular target: T2, MST4A (Homo sapiens, UniProt Q9P289); assay: DSF Tm panel; type: binding; details: 10 μM compound
T2 construct: purchased in-house DSF kinase panel (SGC-style construct names; the trailing letter is the construct ID)

[3] = molecular target: T3, MAP2K6A (Homo sapiens, UniProt P52564); assay: DSF Tm panel; type: binding; details: 10 μM compound
T3 construct: purchased in-house DSF kinase panel (SGC-style construct names; the trailing letter is the construct ID)
T3 sequence (P52564 53-314): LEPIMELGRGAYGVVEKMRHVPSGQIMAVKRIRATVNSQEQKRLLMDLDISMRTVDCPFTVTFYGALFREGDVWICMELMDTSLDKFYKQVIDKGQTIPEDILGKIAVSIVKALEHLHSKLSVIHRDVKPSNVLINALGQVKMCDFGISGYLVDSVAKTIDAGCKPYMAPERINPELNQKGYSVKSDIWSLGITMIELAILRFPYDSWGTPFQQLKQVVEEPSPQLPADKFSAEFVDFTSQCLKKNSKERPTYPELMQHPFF

[4] = molecular target: T4, MAPK9A (Homo sapiens, UniProt P45984); assay: DSF Tm panel; type: binding; details: 10 μM compound
T4 construct: purchased in-house DSF kinase panel (SGC-style construct names; the trailing letter is the construct ID)

[5] = molecular target: T5, MELKA (Homo sapiens, UniProt Q14680); assay: DSF Tm panel; type: binding; details: 10 μM compound
T5 construct: purchased in-house DSF kinase panel (SGC-style construct names; the trailing letter is the construct ID)

[6] = molecular target: T6, STK4 (STK4A) (Homo sapiens, UniProt Q13043); assay: DSF Tm panel; type: binding; details: 10 μM compound
T6 construct: purchased in-house DSF kinase panel (SGC-style construct names; the trailing letter is the construct ID)
T6 sequence (Q13043 1-311): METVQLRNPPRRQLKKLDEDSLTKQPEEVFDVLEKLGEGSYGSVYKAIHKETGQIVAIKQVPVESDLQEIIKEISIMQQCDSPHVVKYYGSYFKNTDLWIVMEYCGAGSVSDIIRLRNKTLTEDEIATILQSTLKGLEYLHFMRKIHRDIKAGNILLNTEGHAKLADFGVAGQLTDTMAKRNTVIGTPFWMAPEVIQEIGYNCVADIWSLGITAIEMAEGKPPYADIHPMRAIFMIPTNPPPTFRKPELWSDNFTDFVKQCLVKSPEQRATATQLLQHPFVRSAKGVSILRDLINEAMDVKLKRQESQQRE

[7] = molecular target: T7, CSNK1DA (Homo sapiens, UniProt P48730); assay: DSF Tm panel; type: binding; details: 10 μM compound
T7 construct: purchased in-house DSF kinase panel (SGC-style construct names; the trailing letter is the construct ID)
T7 sequence (P48730 1-294): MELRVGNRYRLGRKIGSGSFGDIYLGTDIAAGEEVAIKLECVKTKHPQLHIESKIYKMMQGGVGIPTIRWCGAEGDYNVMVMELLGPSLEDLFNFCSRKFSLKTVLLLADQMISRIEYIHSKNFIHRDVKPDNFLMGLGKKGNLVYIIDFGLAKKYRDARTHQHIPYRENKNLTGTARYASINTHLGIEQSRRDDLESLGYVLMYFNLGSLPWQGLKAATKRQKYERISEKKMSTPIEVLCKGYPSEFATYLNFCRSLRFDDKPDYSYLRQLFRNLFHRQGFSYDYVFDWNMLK

[8] = molecular target: T8, SRPK1A (Homo sapiens, UniProt Q96SB4); assay: DSF Tm panel; type: binding; details: 10 μM compound
T8 construct: purchased in-house DSF kinase panel (SGC-style construct names; the trailing letter is the construct ID)

[9] = molecular target: T9, ABL1 (ABL1A) (Homo sapiens, UniProt P00519); assay: DSF Tm panel; type: binding; details: 10 μM compound
T9 construct: purchased in-house DSF kinase panel (SGC-style construct names; the trailing letter is the construct ID)
T9 sequence (P00519 229-512): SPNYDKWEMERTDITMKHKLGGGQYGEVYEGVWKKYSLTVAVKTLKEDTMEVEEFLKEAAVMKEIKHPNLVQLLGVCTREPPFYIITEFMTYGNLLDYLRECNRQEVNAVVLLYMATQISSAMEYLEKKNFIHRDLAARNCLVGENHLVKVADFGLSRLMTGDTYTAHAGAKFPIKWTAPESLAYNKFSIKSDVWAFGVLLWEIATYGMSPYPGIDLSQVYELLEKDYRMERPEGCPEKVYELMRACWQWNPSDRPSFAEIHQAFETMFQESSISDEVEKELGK

[10] = molecular target: SLK (Homo sapiens, UniProt Q9H2G2); assay: PhosphoSens in vitro activity assay; type: biochemical; details: ATP 150 μM
[11] = molecular target: T10, STK39A (Homo sapiens, UniProt Q9UEW8); assay: DSF Tm panel; type: binding; details: 10 μM compound
T10 construct: purchased in-house DSF kinase panel (SGC-style construct names; the trailing letter is the construct ID)

[12] = molecular target: T11, DCAMKL1A (Homo sapiens, UniProt O15075); assay: DSF Tm panel; type: binding; details: 10 μM compound
T11 construct: purchased in-house DSF kinase panel (SGC-style construct names; the trailing letter is the construct ID)
T11 sequence (O15075 372-649): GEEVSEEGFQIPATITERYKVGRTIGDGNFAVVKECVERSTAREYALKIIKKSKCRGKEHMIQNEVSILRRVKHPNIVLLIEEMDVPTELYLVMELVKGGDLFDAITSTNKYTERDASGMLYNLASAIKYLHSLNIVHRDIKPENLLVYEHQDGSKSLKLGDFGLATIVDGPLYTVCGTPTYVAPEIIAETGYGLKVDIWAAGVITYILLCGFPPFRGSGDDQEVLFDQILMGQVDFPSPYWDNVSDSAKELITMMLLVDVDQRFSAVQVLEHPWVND

[13] = molecular target: T12, MAP3K5A (Homo sapiens, UniProt Q99683); assay: DSF Tm panel; type: binding; details: 10 μM compound
T12 construct: purchased in-house DSF kinase panel (SGC-style construct names; the trailing letter is the construct ID)

[14] = molecular target: T13, CDK2A (Homo sapiens, UniProt P24941); assay: DSF Tm panel; type: binding; details: 10 μM compound
T13 construct: purchased in-house DSF kinase panel (SGC-style construct names; the trailing letter is the construct ID)

[15] = molecular target: T14, MARK4A (Homo sapiens, UniProt Q96L34); assay: DSF Tm panel; type: binding; details: 10 μM compound
T14 construct: purchased in-house DSF kinase panel (SGC-style construct names; the trailing letter is the construct ID)

[16] = molecular target: T15, CAMK2BA (Homo sapiens, UniProt Q13554); assay: DSF Tm panel; type: binding; details: 10 μM compound
T15 construct: purchased in-house DSF kinase panel (SGC-style construct names; the trailing letter is the construct ID)

[17] = molecular target: T16, CLK1A (Homo sapiens, UniProt P49759); assay: DSF Tm panel; type: binding; details: 10 μM compound
T16 construct: purchased in-house DSF kinase panel (SGC-style construct names; the trailing letter is the construct ID)
T16 sequence (P49759 148-484): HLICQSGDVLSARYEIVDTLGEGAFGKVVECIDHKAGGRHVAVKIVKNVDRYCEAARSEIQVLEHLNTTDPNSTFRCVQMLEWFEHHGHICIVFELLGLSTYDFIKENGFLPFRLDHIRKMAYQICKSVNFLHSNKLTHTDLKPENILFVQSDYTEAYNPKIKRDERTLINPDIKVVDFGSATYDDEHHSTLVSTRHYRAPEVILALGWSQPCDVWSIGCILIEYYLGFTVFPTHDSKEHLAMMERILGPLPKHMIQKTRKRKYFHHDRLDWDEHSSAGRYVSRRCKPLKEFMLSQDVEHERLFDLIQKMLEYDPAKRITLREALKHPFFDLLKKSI

T14 sequence (Q96L34 59-310): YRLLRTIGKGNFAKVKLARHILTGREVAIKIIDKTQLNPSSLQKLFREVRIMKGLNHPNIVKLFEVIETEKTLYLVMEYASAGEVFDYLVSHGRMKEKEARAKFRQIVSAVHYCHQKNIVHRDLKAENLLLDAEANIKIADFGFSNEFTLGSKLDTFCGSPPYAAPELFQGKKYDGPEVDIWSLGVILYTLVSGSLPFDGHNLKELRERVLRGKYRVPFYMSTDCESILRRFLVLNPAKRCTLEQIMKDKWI
T8 sequence (Q96SB4 80-653): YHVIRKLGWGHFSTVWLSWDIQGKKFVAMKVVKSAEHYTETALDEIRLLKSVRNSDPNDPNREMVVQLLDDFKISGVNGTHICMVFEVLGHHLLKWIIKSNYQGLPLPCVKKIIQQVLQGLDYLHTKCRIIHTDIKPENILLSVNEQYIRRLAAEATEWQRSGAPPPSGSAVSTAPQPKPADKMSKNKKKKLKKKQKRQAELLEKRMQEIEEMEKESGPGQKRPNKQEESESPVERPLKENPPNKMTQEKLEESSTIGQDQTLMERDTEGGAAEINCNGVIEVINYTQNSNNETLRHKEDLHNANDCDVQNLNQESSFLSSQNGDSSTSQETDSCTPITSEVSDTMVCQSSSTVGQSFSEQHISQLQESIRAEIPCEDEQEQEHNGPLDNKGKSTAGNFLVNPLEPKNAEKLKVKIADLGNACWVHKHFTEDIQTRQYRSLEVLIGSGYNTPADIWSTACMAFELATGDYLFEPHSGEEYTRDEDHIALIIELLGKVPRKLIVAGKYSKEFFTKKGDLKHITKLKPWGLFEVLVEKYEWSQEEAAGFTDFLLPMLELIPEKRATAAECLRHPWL
T5 sequence (Q14680 1-340): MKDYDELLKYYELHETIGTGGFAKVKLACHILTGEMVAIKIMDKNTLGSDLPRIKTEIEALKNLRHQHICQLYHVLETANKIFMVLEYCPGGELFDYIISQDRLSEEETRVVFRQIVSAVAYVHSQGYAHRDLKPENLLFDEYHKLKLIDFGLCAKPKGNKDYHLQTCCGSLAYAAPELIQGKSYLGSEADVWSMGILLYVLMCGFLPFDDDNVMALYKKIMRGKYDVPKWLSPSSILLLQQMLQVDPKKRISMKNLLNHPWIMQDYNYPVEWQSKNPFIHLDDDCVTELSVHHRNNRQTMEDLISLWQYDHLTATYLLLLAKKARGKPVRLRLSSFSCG
T2 sequence (Q9P289 1-300): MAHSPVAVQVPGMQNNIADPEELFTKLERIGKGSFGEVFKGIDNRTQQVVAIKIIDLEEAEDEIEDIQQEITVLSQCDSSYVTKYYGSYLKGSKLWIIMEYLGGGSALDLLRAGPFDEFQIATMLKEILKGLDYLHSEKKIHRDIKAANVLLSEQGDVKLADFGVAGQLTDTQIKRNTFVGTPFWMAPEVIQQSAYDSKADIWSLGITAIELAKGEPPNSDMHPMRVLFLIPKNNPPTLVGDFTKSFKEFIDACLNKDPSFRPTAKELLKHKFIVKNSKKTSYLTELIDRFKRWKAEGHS
T12 sequence (Q99683 659-951): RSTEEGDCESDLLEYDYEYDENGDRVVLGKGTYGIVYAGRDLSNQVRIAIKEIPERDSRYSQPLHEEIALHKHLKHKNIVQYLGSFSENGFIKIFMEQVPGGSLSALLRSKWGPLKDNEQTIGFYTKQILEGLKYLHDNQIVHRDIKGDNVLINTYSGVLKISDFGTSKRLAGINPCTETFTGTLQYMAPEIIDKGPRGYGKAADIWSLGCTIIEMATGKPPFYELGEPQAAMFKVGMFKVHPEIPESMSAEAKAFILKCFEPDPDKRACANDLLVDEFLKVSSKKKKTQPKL
T4 sequence (P45984 7-364): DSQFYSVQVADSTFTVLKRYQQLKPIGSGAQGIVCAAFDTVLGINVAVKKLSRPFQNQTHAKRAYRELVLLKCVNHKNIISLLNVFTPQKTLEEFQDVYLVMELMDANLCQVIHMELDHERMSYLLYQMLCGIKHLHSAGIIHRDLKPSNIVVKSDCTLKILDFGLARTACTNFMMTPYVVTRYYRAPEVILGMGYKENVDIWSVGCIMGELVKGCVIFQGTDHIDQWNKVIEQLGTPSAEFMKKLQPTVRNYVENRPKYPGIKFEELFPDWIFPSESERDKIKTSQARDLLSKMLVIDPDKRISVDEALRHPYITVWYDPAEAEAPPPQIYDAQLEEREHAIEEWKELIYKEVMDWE
T15 sequence (Q13554 11-303): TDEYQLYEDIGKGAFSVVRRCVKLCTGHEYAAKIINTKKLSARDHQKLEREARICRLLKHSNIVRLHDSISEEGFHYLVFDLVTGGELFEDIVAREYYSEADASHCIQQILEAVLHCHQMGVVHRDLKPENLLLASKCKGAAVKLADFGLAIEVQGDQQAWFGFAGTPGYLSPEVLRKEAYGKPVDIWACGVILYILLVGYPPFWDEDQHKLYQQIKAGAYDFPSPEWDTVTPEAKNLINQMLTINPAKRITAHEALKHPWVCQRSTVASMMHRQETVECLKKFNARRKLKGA

| SMILES | ΔTm at 10 µM [1] [°C] | ΔTm at 10 µM [2] [°C] | ΔTm at 10 µM [3] [°C] | ΔTm at 10 µM [4] [°C] | ΔTm at 10 µM [5] [°C] | ΔTm at 10 µM [6] [°C] | ΔTm at 10 µM [7] [°C] | ΔTm at 10 µM [8] [°C] | ΔTm at 10 µM [9] [°C] | IC50 [10] [µM] | ΔTm at 10 µM [11] [°C] | ΔTm at 10 µM [12] [°C] | ΔTm at 10 µM [13] [°C] | ΔTm at 10 µM [14] [°C] | ΔTm at 10 µM [15] [°C] | ΔTm at 10 µM [16] [°C] | ΔTm at 10 µM [17] [°C] |
| --- | --- | --- | --- | --- | --- | --- | --- | --- | --- | --- | --- | --- | --- | --- | --- | --- | --- |
| Cc1cc(Br)ccc1CNC(=O)Nc1ccc2cc1OCCOCCNc1ccn3ncc-2c3n1 [compound 24] | 0.5 | 1.2 | 0.6 | -1.2 | 0 | 2.8 | 0.2 | -0.2 | -0.4 | 5.35 ± 1.36 | 1 | 1.6 | 1.4 | 1.6 | 1.9 | -0.2 | 1 |
| Cc1ccc(F)cc1CNC(=O)Nc1ccc2cc1OCCOCCNc1ccn3ncc-2c3n1 [compound 26] | 2.3 | 0.8 | 0.7 | -1.6 | 1.1 | 3.1 | -0.1 | 0 | 0.6 | 9.8 ± 2.41 | 0.9 | 1.6 | 0.9 | 2.3 | 1.9 | 0 | 2.1 |
| O=C(NCc1ccccc1C(F)(F)F)Nc1ccc2cc1OCCOCCNc1ccn3ncc-2c3n1 [compound 27] | 0.8 | 1.9 | 1.2 | -0.1 | 0.4 | 3.8 | -0.5 | -0.1 | 2.4 | 2.74 ± 0.89 | 1.5 | 2.3 | 1.4 | 1.9 | 2.7 | -0.1 | 2.3 |
| COc1ccccc1CNC(=O)Nc1ccc2cc1OCCOCCNc1ccn3ncc-2c3n1 [compound 29] | 1.5 | 0.2 | 0.7 | -2.1 | 1 | 2.6 | 0.2 | 0.2 | 0.7 | 17.1 ± 2.86 | 0.8 | 0.9 | 1 | 1.7 | 1.9 | -0.2 | 2.8 |
| COc1cccc(CNC(=O)Nc2ccc3cc2OCCOCCNc2ccn4ncc-3c4n2)c1 [compound 30] | 3.1 | 0.3 | 0.9 | -1.9 | 1.3 | 3 | 0.2 | 0.1 | 1.5 | > 20 | 1.2 | 1.2 | 1.5 | 2.5 | 1.5 | -0.2 | 2.5 |
| COc1ccc(CNC(=O)Nc2ccc3cc2OCCOCCNc2ccn4ncc-3c4n2)cc1F [compound 32] | 1.8 | 1.2 | 1 | -0.6 | 1.4 | 4.4 | -0.2 | 0 | 1.7 | 11 ± 2.68 | 1.4 | 1.6 | 2 | 3.4 | 2.5 | 0 | 2.7 |
| COc1cc(CNC(=O)Nc2ccc3cc2OCCOCCNc2ccn4ncc-3c4n2)ccc1F [compound 33] | 3.9 | 1.2 | 1.1 | -1.2 | 2.1 | 3.8 | 0.1 | 0 | 1.5 | > 20 | 1.2 | 2.2 | 2.8 | 2.7 | 2.2 | 0.1 | 4.7 |
| C[C@H](NC(=O)Nc1ccc2cc1OCCOCCNc1ccn3ncc-2c3n1)c1ccccc1 [compound 34] | 4.3 | 0.4 | 0.8 | -2 | 1.3 | 2.7 | -0.1 | -0.1 | 1.3 | > 20 | 1 | 1.9 | 0.8 | 1 | 0.9 | -0.3 | 3.1 |
